Assay results from patent US9156826B2, “Asymmetrical reversible neuromuscular blocking agents of ultra-short, short, or intermediate duration” (Cornell University, priority 2012, dated 2015).

Tested on: mean arterial pressure
Experiment: Rise in mean arterial pressure after cysteine dosing
Settings: 100 mg/kg

N[C@H](CS)C(=O)O [D-cysteine]
rise in mean arterial pressure compared with L-cysteine: less of a rise in mean arterial pressure than L-cysteine
